Assay results from US20150272939A1, “Identification of Small Molecule Inhibitors of Jumonji AT-Rich Interactive Domain 1A (JARID1A) and 1B (JARID1B) Histone Demethylase” (Yale University, priority 2012, published 2015).

Experiments:
[1] = AlphaScreen counterscreen against bio-H3K4me2 peptide in the absence of enzyme (artifact signal); conditions: for Artifact Signal (percent): effect of the compound when incubated with bio-H3K4me2 peptide (counterscreen, no enzyme); for Artifact signal: effect of the compound when it is incubated with bio-H3K4me2 peptide: counterscreen, no enzyme;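 for all read-outs here: counterscreen run without enzyme against bio-H3K4me2 peptide to remove false positive hits from the JARID1 demethylase AlphaScreen screen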
JARID1B = molecular target: T1, JARID1B (Homo sapiens, UniProt Q9UGL1); test: FLAG-JARID1B histone demethylase assay with AlphaScreen detection (HTS and dose response); assay type: biochemical; conditions: for Assay − Artifact Signal (percent): assay signal minus artifact signal; for inhibition at 20 µM: high-throughput screen, compound 20 μM, standard demethylase conditions (10 μM α-KG, 50 μM Fe (II)), read-out: Inhibitory effect (percent); for Assay Signal (percent) / Validation result of HTS active: effect of the compound in the JARID1B AlphaScreen demethylase assay: validation of HTS actives; for Assay Signal (percent): effect of compound in JARID1B AlphaScreen assay; for Validation result of HTS active: effect of the compound in the JARID1B AlphaScreen demethylase assay: total signal before subtraction of artifact signal;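 for Assay Signal (percent): compound tested at 20 µM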;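 for Assay − Artifact Signal (percent): compound tested at 20 µM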;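 for all read-outs here: FLAG-tagged JARID1B at 4 nM acting on a biotinylated H3K4me3 peptide, demethylation read by AlphaScreen luminescence, with hits checked against bio-H3K4me2 without enzyme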
T1 construct: The FLAG tagged full length JARID1B enzyme was expressed in Sf21 insect cells using FLAG-JARID1B baculoviruses; FLAG (N); made in house; host or cells: Sf21 insect cells (baculovirus)
T1 sequence (Q9UGL1 whole entry): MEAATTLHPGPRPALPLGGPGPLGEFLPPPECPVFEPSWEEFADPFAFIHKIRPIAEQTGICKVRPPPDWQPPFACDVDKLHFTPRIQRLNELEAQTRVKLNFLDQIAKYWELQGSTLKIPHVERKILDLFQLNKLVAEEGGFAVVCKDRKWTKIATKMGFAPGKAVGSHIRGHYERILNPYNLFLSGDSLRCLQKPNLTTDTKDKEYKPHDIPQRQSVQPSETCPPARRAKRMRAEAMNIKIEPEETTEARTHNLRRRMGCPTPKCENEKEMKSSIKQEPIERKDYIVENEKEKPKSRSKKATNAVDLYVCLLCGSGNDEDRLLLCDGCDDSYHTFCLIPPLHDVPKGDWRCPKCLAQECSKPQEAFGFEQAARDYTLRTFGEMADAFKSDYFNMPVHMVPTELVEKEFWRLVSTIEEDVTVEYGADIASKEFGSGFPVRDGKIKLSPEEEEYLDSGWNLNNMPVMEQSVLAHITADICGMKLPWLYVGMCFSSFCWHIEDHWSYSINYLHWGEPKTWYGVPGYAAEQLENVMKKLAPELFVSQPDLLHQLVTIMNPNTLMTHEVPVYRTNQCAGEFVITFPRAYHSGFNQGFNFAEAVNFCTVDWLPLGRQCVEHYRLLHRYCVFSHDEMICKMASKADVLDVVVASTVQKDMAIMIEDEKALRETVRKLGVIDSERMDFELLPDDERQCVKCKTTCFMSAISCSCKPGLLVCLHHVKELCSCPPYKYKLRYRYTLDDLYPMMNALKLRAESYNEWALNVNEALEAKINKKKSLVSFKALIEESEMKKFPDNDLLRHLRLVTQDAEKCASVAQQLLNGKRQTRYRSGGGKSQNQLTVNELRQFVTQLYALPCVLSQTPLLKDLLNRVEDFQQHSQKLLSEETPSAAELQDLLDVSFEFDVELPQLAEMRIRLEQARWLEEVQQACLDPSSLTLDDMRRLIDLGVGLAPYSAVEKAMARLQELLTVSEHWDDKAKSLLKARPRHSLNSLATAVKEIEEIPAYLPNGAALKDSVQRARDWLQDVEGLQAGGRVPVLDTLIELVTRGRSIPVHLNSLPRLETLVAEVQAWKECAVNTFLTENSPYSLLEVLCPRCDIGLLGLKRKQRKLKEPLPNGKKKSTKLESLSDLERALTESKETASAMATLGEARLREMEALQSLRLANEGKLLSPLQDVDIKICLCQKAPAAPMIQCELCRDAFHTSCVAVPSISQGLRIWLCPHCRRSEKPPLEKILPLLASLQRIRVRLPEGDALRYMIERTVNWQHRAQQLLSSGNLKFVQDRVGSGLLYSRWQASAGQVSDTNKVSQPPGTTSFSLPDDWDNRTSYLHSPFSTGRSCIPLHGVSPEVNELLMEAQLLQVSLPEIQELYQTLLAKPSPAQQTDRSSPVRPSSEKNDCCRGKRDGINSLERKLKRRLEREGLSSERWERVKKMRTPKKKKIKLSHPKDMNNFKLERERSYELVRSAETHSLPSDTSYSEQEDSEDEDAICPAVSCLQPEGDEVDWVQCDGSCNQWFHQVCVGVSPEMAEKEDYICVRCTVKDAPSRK

SMILES | Artifact Signal (percent) [1] | Assay − Artifact Signal (percent) (JARID1B) | inhibition at 20 µM (JARID1B) | Assay Signal (percent) (JARID1B) | Artifact signal: effect of the compound when it is incubated with bio-H3K4me2 peptide [1] | Validation result of HTS active: effect of the compound in the JARID1B AlphaScreen demethylase assay (JARID1B)
Cn1c(S)nnc1CSCc1ccc(F)cc1 [YU147498] | −3.87% | 23.24% | 31.1% | 19.36% | – | –
Cc1cc(OCc2nc3ccccc3s2)ccc1N [YU147615] | 0.54% | 13.88% | 40.4% | 14.43% | – | –
CNCCCOc1ccc(OCc2ccccc2)cc1 [YU147640] | – | – | 39.1% | – | −2.82 | 5.15
C=CCn1c(Cc2nc3ccccc3[nH]2)n[nH]c1=S [YU147658] | −0.55% | 28.18% | 32.8% | 27.63% | – | –
COc1ccc2nc(NCc3ccncc3)sc2c1 [YU147704] | 1.42% | 54.05% | 70.4% | 55.47% | – | –
Cc1nc(NC(=O)c2cc3ccccc3o2)sc1C [YU147750] | – | – | 86.4% | – | −6.59 | −2.53
O=S(=O)(NN1CCOCC1)c1ccc(Cl)cc1 [YU148050] | 3.44% | 17.03% | 36.1% | 20.47% | – | –
COC(=O)c1cccc(OCC(O)Cn2ccnc2)c1 (stereo not drawn) [YU148087] | 7.00% | 8.48% | 51.4% | 15.48% | – | –
C=CCn1c(-c2cccc(OC)c2OC)n[nH]c1=S [YU148159] | 2.98% | 35.74% | 30.4% | 38.72% | – | –
O=C(NNC(=S)NCC1CCCO1)c1ccccn1 (stereo not drawn) [YU148374] | 22.77% | 54.50% | 84.8% | 77.28% | – | –
COc1ccc(Cl)cc1NC(=S)Nn1cnnc1 [YU148611] | −2.20% | 17.82% | 34.6% | 15.61% | – | –
O=C(NCCc1ccc(F)cc1)C(Cl)(Cl)Cl [YU148680] | – | – | 63.9% | – | −10.90 | −2.95
Cc1ccc(C(=O)Nc2nnc(-c3ccncc3)s2)o1 [YU148889] | 6.66% | 9.49% | 44.6% | 16.16% | – | –
S=C(Nc1cccc(Cl)c1Cl)Nn1cnnc1 [YU149002] | 3.30% | 12.28% | 37.9% | 15.58% | – | –
C=CCn1c(S)nnc1CNC(=O)c1cccc(C)c1 [YU149014] | −1.43% | 49.04% | 35.7% | 47.61% | – | –
